Source: the Bradley open melting point set (2014)
“And” between values parts separate entries of the source, which are not always exact repeats. Equal values may be shown once.

| SMILES | melting point |
| --- | --- |
| CCN(CC)c1ccccc1 [N,N-diethylaniline] | -38 °C |
| CC(C)N(C=O)C(C)C [N,N-diisopropylformamide] | 10 °C |
| CCN(C)C [N,N-dimethylethylamine] | -140 °C |
| CN(C)C=O [N,N-dimethylformamide] | -61 °C |
| NC(=S)Nc1cccc2ccccc12 [N-(1-naphthyl)thiourea] | 188 °C |
| COc1ccccc1NC(=O)/C=CC(=O)O [N-(2-methoxyphenyl)maleamic acid] | 144 °C |
| Cc1ccccc1CNC(=O)c1ccccc1 [N-(2-methylbenzyl)benzamide] | 118 °C |
| CC(C)(C)c1cnc(C(=O)Nc2cccc(Br)c2)cn1 [N-(3-bromophenyl)-5-tert-butylpyrazine-2-carboxamide] | 114 °C |
| CN(C)c1ccc(/C=N/c2ccccc2)cc1 [N-(4-Dimethylaminobenzylidene)aniline] | 99 °C and 100 °C |
| CCOc1ccc(NC(C)=O)cc1 [N-(4-Ethoxyphenyl)acetamide] | 134 °C |
| O=C1c2ccccc2C(=O)N1OCCCCBr [N-(4-bromobutoxy)phthalimide] | 71 °C |
| O=C1C=CC(=O)N1c1ccc(Br)cc1 [N-(4-bromophenyl)maleimide] | 129 °C |
| c1cc(ccc1NC(=O)/C=CC(=O)O)F [N-(4-fluorophenyl)maleamic acid] | 208 °C |
| CSCC[C@H](NC(C)=O)C(=O)O [N-Acetyl-L-methionine] | 106 °C |
| CSCC[C@H](NC(C)=O)C(=O)O [N-Acetylmethionine] | 106 °C |
| Cc1ccc(S(=O)(=O)NC2CCCCC2)cc1 [N-Cyclohexyl-4-methylbenzenesulfonamide] | 84.5 °C |
| CCNCC [N-Ethylethanamine] | -50 °C |
| CCC(C)=NO [N-Hydroxybutan-2-imine] | -29.5 °C |
| CNc1ccccc1 [N-Methylaniline] | -57 °C |
| CN1C(=O)CCC(N2C(=O)c3ccccc3C2=O)C1=O (stereo not drawn) [N-Methylthalidomide] | 159 °C |
| CCCCCCCC [N-Octane] | -56.8 °C |
| c1ccc(Nc2ccccc2)cc1 [N-Phenylaniline] | 53 °C |
| CCCN1C(=O)CCC(N2C(=O)c3ccccc3C2=O)C1=O (stereo not drawn) [N-Propylthalidomide] | 136 °C |
| CCCCCCCCCCCCC(=O)O [N-Tridecanoic Acid] | 44.5 °C |
| CC(=O)Nc1ccccc1NNc1ccccc1 [N-[2-(2-phenylhydrazino)phenyl]acetamide] | 168 °C |

| SMILES | melting point |
| --- | --- |
| O=[N+]([O-])c1cccc2cccc(/C=N/c3ccccc3)c12 [N-[(1E)-(8-nitronaphthalen-1-yl)methylidene]aniline] | 115 °C |
| CC(=O)NS(=O)(=O)c1ccc(N)cc1 [N-[(4-Aminophenyl)sulfonyl]acetamide] | 182 °C |
| C=CCNC(N)=S [N-allylthiourea] | 74 °C |
| CCCC[C@@H](NC(=O)OCc1ccccc1)C(=O)O [N-benzyloxycarbonyl-D-norleucine] | 57 °C |
| O=C(O)CC[C@H](NC(=O)OCc1ccccc1)C(=O)O [N-benzyloxycarbonyl-l-glutamic acid] | 119 °C |
| O=C(N[C@H](CO)Cc1ccccc1)OCc1ccccc1 [N-benzyloxycarbonyl-l-phenylalaninol] | 94 °C |
| CC(C)(C)OC(=O)N[C@H](Cc1cccc(F)c1)C(=O)O [N-boc-3-fluoro-d-phenylalanine] | 77 °C |
| CC(C)(C)OC(=O)N[C@@H](Cc1ccc(Br)cc1)C(=O)O [N-boc-4-bromo-L-phenylalanine] | 119 °C |
| C[C@@H](NC(=O)OC(C)(C)C)C(=O)O [N-boc-D-alanine] | 83 °C |
| CC(C)(C)OC(=O)N[C@H](Cc1ccccc1)C(=O)O [N-boc-D-phenylalanine] | 87 °C |
| CC(C)(C)OC(=O)N[C@@H](Cc1ccccc1)C(=O)O [N-boc-L-phenylalanine] | 87 °C |
| CC(C)(C)OC(=O)N1CCC[C@H]1CO [N-boc-L-prolinol] | 61 °C |
| CCCCOc1ccccc1 [N-butyl phenyl ether] | -19 °C |
| C=COCCCC [N-butyl vinyl ether] | -113 °C |
| O=C(NC(CO)C(=O)O)OCc1ccccc1 (stereo not drawn) [N-carbobenzoxy-serine] | 111 °C |
| Cc1ccc(S(=O)(=O)NC2CCCCC2)cc1 [N-cyclohexyl-p-toluenesulfonamide] | 88 °C |
| O=C(NC1CCCCC1)c1ccccc1 [N-cyclohexylbenzamide] | 162 °C |
| CCCCCCCCCCCCCCCCCCCCCC [N-docosane] | 45 °C |
| CCCCCCCCCCCCCCCCCCCC [N-eicosane] | 37 °C |
| CC(C)[C@H](NC(=O)OCC1c2ccccc2-c2ccccc21)C(=O)O [N-fmoc-L-valine] | 144 °C |
| CCCCCCCCCCCCCCCCC [N-heptadecane] | 22 °C |
| CCCCCCC [N-heptane] | -91 °C |
| CCCCCCCCCCCCCCCC [N-hexadecane] | 18 °C |
| CCCCCCOC(C)=O [N-hexyl acetate] | -80 °C |
| CCCCCCS(=O)(=O)CC#N [N-hexylsulfonylacetonitrile] | 42 °C |

| SMILES | melting point |
| --- | --- |
| Cn1c2c(c3ccccc31)CCCC2 [N-methyl-1,2,3,4-tetrahydrocarbazole] | 53 °C |
| CNC(C)=O [N-methylacetamide] | 27 °C |
| CNc1ccccc1 [N-methylaniline] | -57 °C |
| CCCCCCCCCCCCCCCCCCC [N-nonadecane] | 33 °C |
| CCCCCCCCC [N-nonane] | -53 °C |
| CCCCCCCC [N-octane] | -57 °C |
| CCCCCCCCc1ccccc1 [N-octylbenzene] | -36 °C |
| O=C(Nc1ccccc1)Nc1nnc(C(F)(F)F)s1 [N-phenyl-N'-[5-(trifluoromethyl)-1,3,4-thiadiazol-2-yl]urea] | 150 °C |
| O=C(O)c1ccccc1Nc1ccccc1 [N-phenylanthranilic acid] | 187 °C |
| O=C(O)CN1C(=O)c2ccccc2C1=O [N-phthaloylglycine] | 196 °C |
| C#CCON1C(=O)c2ccccc2C1=O [N-propargyloxyphthalimide] | 151 °C |
| C#CCN1C(=O)c2ccccc2C1=O [N-propargylphthalimide] | 150 °C |
| CCCCCCCCCCCCCCCCCCCCCCCCCCCCCC [N-triacontane] | 67 °C |
| CCCCCCCCCCCCCCCCCCCCCCC [N-tricosane] | 49 °C |
| CCCCCCCCCCCCCc1ccccc1 [N-tridecylbenzene] | 10 °C |
| CC(=O)Nc1ccccc1/C=C/c1ccccc1 [N-{2-[(E)-2-phenylethenyl]phenyl}acetamide] | 113 °C |
| NC(=O)c1cccnc1 [Nicotinamide] | 130 °C |
| O=C(O)c1cccnc1 [Nicotinic acid] | 237 °C |
| COC(=O)C1=C(C)NC(C)=C(C(=O)OC)C1c1ccccc1[N+](=O)[O-] [Nifedipine] | 173 °C |
| CCCCCCCCCCCCCCCCCCC [Nonadecane] | 33 °C |
| CCCCCCCCC [Nonane] | -53 °C |
| CC1C=CC=CCCC=CC=CC=CC=CC(OC2O[C@H](C)[C@@H](O)[C@H](N)[C@@H]2O)CC(O)C(C(=O)O)C(O)CC(=O)CC(O)C(O)CCC(O)CC(O)CC(O)CC(=O)OC(C)C(C)C1O (stereo partly drawn) [Nystatin] | 160 °C |
| Cc1cc(/C=C2\SC(=Nc3ccccc3)N=C2O)c(C)n1-c1ccc(F)cc1 [OSM-S-10] | 278 °C |
| Cc1c(C(=O)O)cnn1-c1ccccc1 [OSM-S-24] | 168 °C |
| Cc1cc(C=O)c(C)n1-c1cc(C(F)(F)F)cc(C(F)(F)F)c1 [OSM-S-36] | 95.5 °C |

| SMILES | melting point |
| --- | --- |
| Cc1cc(/C=C2\S/C(=N\c3ccccc3)N(CC#N)C2=O)c(C)n1-c1ccc(C(F)(F)F)cc1 [OSM-S-43] | 73 °C |
| CCOC(=O)c1ccc(-n2c(C)cc(C=O)c2C)cc1 [OSM-S-46] | 113 °C |
| O=C1CS/C(=N\c2ccccc2)N1c1ccccc1 [OSM-S-47] | 176 °C |
| CC(=O)N(C1=NC(=O)/C(=C/c2cc(C)n(-c3ccc(C)cc3)c2C)S1)c1ccccc1 [OSM-S-50] | 257 °C |
| Cc1cc(/C=C2\S/C(=N\c3ccccc3)N(c3ccccc3)C2=O)c(C)n1-c1ccc(C(F)(F)F)cc1 [OSM-S-52] | 226 °C |
| ClC(Cl)=C(Cl)c1c(Cl)c(Cl)c(Cl)c(Cl)c1Cl [Octachlorostyrene] | 95 °C |
| CC1COc2c(N3CCN(C)CC3)c(F)cc3c(=O)c(C(=O)O)cn1c23 (stereo not drawn) [Ofloxacin] | 254 °C |
| COc1ccc2[nH]c([S+]([O-])Cc3ncc(C)c(OC)c3C)nc2c1 (stereo not drawn) [Omeprazole] | 156 °C |
| C1CO1 [Oxirane] | -111 °C |
| O=S(=O)=O [Oxosulfane dioxide] | 16.8 °C |
| CN(C)[C@@H]1C(O)=C(C(N)=O)C(=O)[C@@]2(O)C(O)=C3C(=O)c4c(O)cccc4[C@@](C)(O)[C@H]3[C@H](O)[C@@H]12 [Oxytetracycline] | 183 °C |
| COc1ccc(C(=O)O)cc1 [P-Anisic Acid] | 185 °C |
| Clc1ccc(-c2cc(Cl)ccc2Cl)cc1 [PCB-31] | 65 °C |
| Clc1ccc(-c2cc(Cl)c(Cl)cc2Cl)cc1Cl [PCB-118] | 110 °C |
| Clc1cc(Cl)c(-c2cc(Cl)c(Cl)cc2Cl)cc1Cl [PCB-153] | 103 °C |
| Oc1cc(Cl)c(-c2c(Cl)cc(Cl)cc2Cl)c(Cl)c1O [PCB-155] | 113 °C |
| Clc1cc(Cl)c(-c2cc(Cl)c(Cl)c(Cl)c2Cl)cc1Cl [PCB-180] | 112 °C |
| Clc1cc(-c2cc(Cl)c(Cl)c(Cl)c2Cl)c(Cl)c(Cl)c1Cl [PCB-194] | 157 °C |
| C=CCCC [Pent-1-ene] | -165 °C |
| O=[N+]([O-])c1c(Cl)c(Cl)c(Cl)c(Cl)c1Cl [Pentachloronitrobenzene] | 144 °C |
| Oc1c(Cl)c(Cl)c(Cl)c(Cl)c1Cl [Pentachlorophenol] | 174 °C |
| Cc1c(Cl)c(Cl)c(Cl)c(Cl)c1Cl [Pentachlorotoluene] | 225 °C |
| O=C(O)C(F)(F)C(F)(F)C(F)(F)C(F)(F)C(F)(F)C(F)(F)C(F)(F)F [Pentadecafluorooctanoic acid] | 55.5 °C |
